Here are results for 4 molecules from patent US5760048A, “Alpha-mercaptoacrylic acid derivatives having calpain inhibitory activity” (Warner-Lambert Company, priority 1996, dated 1998).

Molecules are shown by their SMILES. “Also recorded” adds a separate entry of the source. Like-named read-outs stand apart in the source and are kept apart here. Square brackets hold non-standard residues; d marks the D form. Peptide text beside a SMILES is read from it. Nle = CCCC[C@H](N)C(=O)O

The subject of one assay is smooth muscle cells. Conditions: cited from earlier work.
For a further assay, the system named is restenosis. Conditions: in vivo; cited from earlier work.
Assay [1] concerns the target T1, calpain I (Homo sapiens, UniProt P07384).
T1 sequence (P07384 1-714): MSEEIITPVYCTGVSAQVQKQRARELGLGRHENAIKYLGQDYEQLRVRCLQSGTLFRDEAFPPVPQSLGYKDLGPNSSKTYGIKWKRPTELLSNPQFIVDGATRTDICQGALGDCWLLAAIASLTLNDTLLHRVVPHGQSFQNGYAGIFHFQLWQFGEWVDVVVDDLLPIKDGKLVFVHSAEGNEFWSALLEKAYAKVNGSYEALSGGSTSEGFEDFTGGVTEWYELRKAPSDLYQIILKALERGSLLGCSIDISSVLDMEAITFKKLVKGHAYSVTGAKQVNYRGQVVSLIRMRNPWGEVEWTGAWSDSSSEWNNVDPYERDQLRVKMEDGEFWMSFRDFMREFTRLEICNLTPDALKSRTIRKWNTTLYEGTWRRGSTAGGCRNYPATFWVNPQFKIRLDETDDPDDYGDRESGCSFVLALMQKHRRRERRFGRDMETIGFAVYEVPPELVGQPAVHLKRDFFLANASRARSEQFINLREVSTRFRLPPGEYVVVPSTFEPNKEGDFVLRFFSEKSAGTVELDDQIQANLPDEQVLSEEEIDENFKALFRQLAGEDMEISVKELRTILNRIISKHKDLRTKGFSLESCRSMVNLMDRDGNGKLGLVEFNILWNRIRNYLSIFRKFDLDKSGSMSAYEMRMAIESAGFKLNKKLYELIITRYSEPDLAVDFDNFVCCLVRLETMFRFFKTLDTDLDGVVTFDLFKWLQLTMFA
T1 sequence (P04632 1-268 partner): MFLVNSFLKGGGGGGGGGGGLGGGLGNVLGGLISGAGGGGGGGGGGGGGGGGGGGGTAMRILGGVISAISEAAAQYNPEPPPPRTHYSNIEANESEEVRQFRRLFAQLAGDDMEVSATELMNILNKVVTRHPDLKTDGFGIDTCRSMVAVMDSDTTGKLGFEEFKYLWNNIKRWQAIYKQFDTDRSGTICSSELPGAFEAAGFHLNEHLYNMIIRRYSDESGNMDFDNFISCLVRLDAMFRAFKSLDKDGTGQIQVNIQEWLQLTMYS
The assay can be described thus: Calpain inhibition after treatment with rabbit liver esterase. The format is biochemical. Details: casein substrate. Conditions: FIG. I. How it is done: Calpain I was purified from human erythrocytes as described by Wang K. K. W., Roufogalis B. D., Villalobo A., Arch Biochem Biophys 1988;267:317-327.Calpain activity was assayed in a 96-well microplate format (Buroker-Kilgore M., Wang K. K. W., Anal Biochem 1993;208:387-392). In 250 μL of reaction mixture, substrate casein (0.5 mg/mL) was incubated with 0.01 unit (80-120 ng) calpain I, 20 mM dithiothreitol (DTT), 50 mM Tris-HCl (pH 7.4 at 25° C.), and 4 mM CaCl2 at 25° C. for 60 minutes. Two 100-μL aliquots were taken for Coomassie blue binding analysis to quantify the remaining casein.
Various concentrations of the compound of Example 6 (250 nM to 2.5 mM) were pretreated with 0.2 unit rabbit liver esterase (Sigma E9636) in 50 μL containing 50 mM Tris-HCl (pH 7.4 at 25° C.), 5 mM DTT at 25° C. for 60 minutes. The mixture was then tested for calpain inhibition with the calpain assay described above.
The esterase presumably hydrolyzed the only ester bond in the molecule, producing the free acid compound which is identical to the compound of Example 3.

The target in assay [2] is T1, calpain I. The assay can be described thus: Assay of Calpain Activity (casein substrate, microplate, Coomassie blue). Also on record: Calpain I was purified from human erythrocytes; from tissue; host or cells: human erythrocytes. The format is biochemical. How it is done: In 250 μL of reaction mixture, substrate casein (0.5 mg/mL) was incubated with 0.01 unit (80-120 ng) calpain I, 20 mM dithiothreitol (DTT), 50 mM Tris-HCl (pH 7.4 at 25° C.), and 4 mM CaCl2 at 25° C. for 60 minutes. Two 100-μL aliquots were taken for Coomassie blue binding analysis to quantify the remaining casein.
Calpain I was assayed as described (α-mercaptoacrylic acid). […] Inhibition of these proteases are presented as IC50.

Another assay deals with T2, papain (Carica papaya, UniProt P00784).
T2 construct: purchased Sigma P3125; host or cells: papaya latex
T2 sequence (P00784 134-345): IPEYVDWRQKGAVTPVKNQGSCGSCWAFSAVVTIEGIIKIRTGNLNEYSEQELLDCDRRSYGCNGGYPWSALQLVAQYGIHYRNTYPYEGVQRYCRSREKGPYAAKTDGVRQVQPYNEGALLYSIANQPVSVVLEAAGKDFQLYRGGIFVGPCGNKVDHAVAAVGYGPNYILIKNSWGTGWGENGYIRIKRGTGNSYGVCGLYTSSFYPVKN
Nature of the assay: Selectivity: papain protease assay (casein substrate). The following applies: Table II; read-out: Inhibitory Activity of Thiol-Acrylates, Papain (IC50). The format is biochemical. On the procedure: (§1) Calpain I was assayed as described (α-mercaptoacrylic acid). Ten to 20 ng papain (papaya latex, Sigma, P3125), 1.25 μg trypsin (bovine pancreas, Sigma, T8003), and 5 μg thermolysin (Bacillus thermoproteolyticus, Sigma, P1512) were assayed using 0.5 mg/mL casein as substrate in the microplate format (250 μL reaction volume), essentially as described by Buroker-Kilgore M., Wang K. K. W., Anal Biochem 1993;208:387-392. Inhibition of these proteases are presented as IC50.

The target in a further assay is T3, trypsin (Bos taurus, UniProt P00760).
T3 construct: purchased Sigma T8003; host or cells: bovine pancreas
T3 sequence (P00760 24-246): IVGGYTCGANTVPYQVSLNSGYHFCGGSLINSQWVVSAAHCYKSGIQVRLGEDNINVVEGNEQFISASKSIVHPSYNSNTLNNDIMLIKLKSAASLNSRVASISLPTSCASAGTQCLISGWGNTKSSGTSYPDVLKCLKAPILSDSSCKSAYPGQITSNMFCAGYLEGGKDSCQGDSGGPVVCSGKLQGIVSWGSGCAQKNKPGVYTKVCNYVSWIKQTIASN
The assay can be described thus: Selectivity: trypsin protease assay (casein substrate). The format is biochemical, bovine. Conditions: Table II; read-out: Inhibitory Activity of Thiol-Acrylates, Trypsin (IC50). On the procedure:
as §1

A further assay deals with T4, thermolysin (Bacillus thermoproteolyticus, UniProt P00800).
T4 construct: purchased Sigma P1512; host or cells: Bacillus thermoproteolyticus
The assay can be described thus: Selectivity: thermolysin protease assay (casein substrate). The format is biochemical. On the procedure:
as §1

Assay [3] deals with Fetal rat cortical cell cultures. Nature of the assay: Assay of Lactate Dehydrogenase (LDH): NMDA-induced LDH release. Type of assay: cell-based. Conditions: 500 μM NMDA; 200 μM calpain inhibiting compound; FIG. II. On the procedure:
Seventeen-day-old cultures were pretreated with 200 μM calpain inhibiting compound (when added) for 1 hour before treatment of 500 μM N-methyl-D-aspartate (NMDA) for 30 minutes (in the absence or the presence of the compound).
For orientation: LDH in the medium is a marker of cell lysis.

Assay [4] has as its system spectrin breakdown in rat cortical cell cultures. Nature of the assay: Spectrin Breakdown Measurement (immunoblot). The format is cell-based. Conditions: NMDA-treated cortical cells, 4-hour post-NMDA. How it is done:
Rat cortical cell cultures were treated with NMDA in the absence or presence of calpain inhibiting compounds as described in "Assay of LDH" above. At the end of the 4-hour post-NMDA incubation, cells were lysed with 300 μL buffer containing 20 mM Tris-HCL (pH 7.4 at 4° C.), 1% SDS, 5 mM EGTA, 5 mM EDTA, 1 mM DTT, and various protease inhibitors. Total cellular protein was precipitated by 100 μL of 100% trichloroacetic acid. The samples were centrifuged and the pelleted protein solubilized with 50 μl of 3M Tris base. […] The blots were then probed with rabbit antibrain spectrin antibody (primary antibody) followed by alkaline phosphatase-conjugated goat antirabbit immunoglobulin G antibody (secondary antibody). […] The SBP were quantified by densitometry (BioRad Model 620).
Background: Immunoblotting shows a protein as a band on a membrane.

The target in assay [5] is T1, calpain I. The assay can be described thus: Casein Breakdown by calpain I (SDS-PAGE). The format is biochemical. Details: casein substrate. Conditions: 30 μM compound, 0.8 nM calpain I, all time points up to 120 minutes. On the procedure:
Casein (15 μM) was incubated with 0.8 nM calpain I, 15 mM DTT, 45 mM Tris-HCl (pH 7.4 at 25° C.) and in the presence or the absence of compound Example 3 (30 μM) for up to 120 minutes. Aliquots of the samples were taken at several time points and subjected to SDS-polyacrylamide gel electrophoresis (SDS-PAGE) as described by Laemmli U. K., Nature 1970;[…]. Casein and its fragments were visualized by Coomassie G250 staining of the gel.

For another assay, the system named is myocardiac infraction. Conditions: dogs, coronary reperfusion after acute myocardiac infraction; cited from earlier work.
[6] abbreviates: Table I, 4 mM CaCl2, pH 7.4, 25° C., 60 minutes, read-out: Inhibitory Activity Against Human Calpain I IC50.

T4 sequence (P00800 233-548): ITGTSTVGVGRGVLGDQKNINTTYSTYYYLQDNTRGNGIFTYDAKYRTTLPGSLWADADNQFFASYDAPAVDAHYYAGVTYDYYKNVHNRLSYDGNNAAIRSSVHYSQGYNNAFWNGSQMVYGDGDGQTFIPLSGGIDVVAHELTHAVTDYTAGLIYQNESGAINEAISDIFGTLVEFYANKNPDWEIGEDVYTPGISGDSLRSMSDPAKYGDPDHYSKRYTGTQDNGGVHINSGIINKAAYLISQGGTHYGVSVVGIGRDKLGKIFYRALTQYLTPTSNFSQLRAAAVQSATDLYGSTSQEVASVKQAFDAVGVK

For `CCCC[C@@H](C=O)NC(=O)[C@H](CC(C)C)NC(=O)[C@H](CC(C)C)NC(C)=O` [calpain inhibitor I] (Ac-Leu-Leu-[Nle]-aldehyde), the “proliferation and migration of smooth muscle cells to the neoinitimal layer” value in the assay with smooth muscle cells is “controlling proliferation and migration of smooth muscle cells”. Further, the inhibition of restenosis result with restenosis was “inhibit restenosis”.
As to `CCOC(=O)/C(S)=C/c1ccc2ccccc2c1` [Example 6, Ethyl 2-Propenoic Acid, (Z)-2-mercapto-3-(2-naphthalenyl)-, Ethyl Ester], the “inhibition of calpain upon preincubation with esterase (in words)” value against calpain I [1] (0.2 unit rabbit liver esterase, 60 minutes) is reported as “shows activity only after it is hydrolyzed by cellular esterase; also recorded: strong inhibition on calpain”. Moreover, the “inhibition of calpain I without esterase (in words)” value on calpain I [1] (as high as 500 μM, no esterase) is recorded as “did not inhibit calpain I”. For the same molecule, the IC50 (commonly the concentration needed to halve the response being measured) on calpain I [2] (setting [6]) is above 500000 nM.
`O=C(O)/C(S)=C/c1ccc2ccccc2c1` [Example 3, (Z)-2-Propenoic Acid, 2-mercapto-3-(7-naphthalenyl)]: the IC50 was above 200 µM at papain; above 200 µM at trypsin; 394 µM at thermolysin; 2600 nM at calpain I [2] (setting [6]); 2400 nM at calpain I [2] (Table II (selectivity), read-out: Inhibitory Activity of Thiol-Acrylates, Calpain (IC50)). Further, the “block of NMDA-induced LDH release (in words)” value in assay [3] was “partially blocked”. Moreover, in [4], the “spectrin breakdown product (SBP) formation, 150 kDa and 145 kDa (in words)” value is given as “partially blocked SBP formation”. In addition, the “degradation of casein by calpain I (in words)” value at calpain I [5] is listed as “almost completely blocked the degradation of casein at all time points”.
For `CC(C)CCNC(=O)[C@H](CC(C)C)NC(=O)[C@H]1O[C@@H]1C(=O)O` [Example E64c], in the assay with myocardiac infraction, the size of infract entry is “significantly reduce the size of infract”.
